The assay relates to Aedes aegypti. The assay can be described thus: Warm Body assay, mosquito landings on treated warm body. The format is in vivo. The settings on record: for pest or weed control at 1 % / mosquito landing within the two minutes of experiments: highest tested concentration, 1% (Table 3); for pest or weed control at 1 % / pest or weed control at 0.04 %: read-out: repellence; for pest or weed control at 0.0016 %: read-out: reduce the number of mosquito landings; for pest or weed control at 0.04 %: intermediate concentration of 0.04% (Table 3). How it is done:
The arthropod controlling effect according to the present invention is determined on mosquitoes using an adapted Warm Body assay as defined in Kröber T, Kessler S, Frei J, Bourquin M, Guerin PM. An in vitro assay for testing mosquito controlling compounds employing a warm body and carbon dioxide as a behavioral activator. J Am Mosq Control Assoc. 2010; 26: 381-386. Further information is provided in the accompanying examples
The controlling effect, repellence & spatial repellence, according to the present invention is determined by testing the Warm Body assay against the yellow fever mosquito, Aedes aegypti Rockefeller strain. […] Observations of controlling efficacy were made on host-seeking females of uniform age, 5 to 10 days old selected as mentioned in the publication mentioned hereinabove. Tested hungry females had access to 10% sugar solution but were not blood-fed. Further information is provided in the accompanying examples.
The published protocol has been adapted in not manually counting the landing mosquitoes but automatically using an automatic counting software, the switch from Anopheles gambiae to A. aegypti led to a decrease of mosquitoes' number placed in the tested cage due to the size difference (i.e. 30 mosquitoes instead of 50) and to an increase of lighting as A. aegypti is a diurnal mosquitoes (i.e. 150 lux instead of 4 lux). Further information is provided in the accompanying examples. […]
The controlling effect according to the present invention was assessed using an adapted Warm Body assay as defined in Kröber T, Kessler S, Frei J, Bourquin M, Guerin P M. 2010. J Am Mosq Control Assoc. 26: 381-386. In this in-vitro assay the number of mosquito landing on a warm body, simulating an attractive host treated with the tested stimuli, was measured in order to assess the repellence effect.
The published protocol has been adapted as the switch from Anopheles gambiae to Aedes aegypti led to a decrease of mosquitoes placed in the tested cage due to the size difference (i.e. 30 mosquitoes instead of 50) and to an increase of lighting since A. aegypti is a diurnal mosquitoes (i.e. 150 lux instead of 4 lux).
On the sandblasted glass Petri dish covering the warm body (28.3 cm^2), 100 μL of the compounds diluted at different concentrations in ethanol was applied. The number of mosquito landing on the warm body was counted for each stimulus and pure ethanol (solvent) as control.

Where [1] appears, read: Aedes aegypti, 0.0032 mg/mL (Table 2), read-out: Percentage of repellence of mosquitoes Aedes aegypti landing on the warm body.
Setting [2] is: Aedes aegypti, 0.016 mg/mL (Table 2), read-out: Percentage of repellence of mosquitoes Aedes aegypti landing on the warm body.
[3] abbreviates: Aedes aegypti, 0.0357 mg/mL (Table 2), read-out: Percentage of repellence of mosquitoes Aedes aegypti landing on the warm body.
The mark [4] stands for this setting: Aedes aegypti, 0.08 mg/mL (Table 2), read-out: Percentage of repellence of mosquitoes Aedes aegypti landing on the warm body.
[5] abbreviates: Aedes aegypti, 0.178 mg/mL (Table 2), read-out: Percentage of repellence of mosquitoes Aedes aegypti landing on the warm body.
[6] abbreviates: Aedes aegypti, 0.4 mg/mL (Table 2), read-out: Percentage of repellence of mosquitoes Aedes aegypti landing on the warm body.
[7] abbreviates: Aedes aegypti, 0.89 mg/mL (Table 2), read-out: Percentage of repellence of mosquitoes Aedes aegypti landing on the warm body.
[8] abbreviates: Aedes aegypti, 2 mg/mL (Table 2), read-out: Percentage of repellence of mosquitoes Aedes aegypti landing on the warm body.
The mark [9] stands for this setting: Aedes aegypti, 10 mg/mL (Table 2), read-out: Percentage of repellence of mosquitoes Aedes aegypti landing on the warm body.
The mark [10] stands for this setting: Aedes aegypti, 0.016 mg/mL (Table 3), read-out: Percentage of repellence of mosquitoes Aedes aegypti landing on the warm body.
Setting [11] is: Aedes aegypti, 0.4 mg/mL (Table 3), read-out: Percentage of repellence of mosquitoes Aedes aegypti landing on the warm body.
The mark [12] stands for this setting: Aedes aegypti, 10 mg/mL (Table 3), read-out: Percentage of repellence of mosquitoes Aedes aegypti landing on the warm body.
The mark [13] stands for this setting: Aedes aegypti, read-out: Percentage of repellence of mosquitoes Aedes aegypti landing on the warm body.

Like-named read-outs stand apart in the source and are kept apart here.

As to `CC=Cc1cc(OC)c(O)c(OC)c1` [compound 1127, 2,6-dimethoxy-4-prop-1-enylphenol], the pest or weed control at 3.2 µg/mL under setting [1] was 17%. Moreover, the pest or weed control at 16 µg/mL under setting [2] amounted to 1%. Under setting [3], the pest or weed control at 35.7 µg/mL is 0%. In addition, the pest or weed control at 80 µg/mL under setting [4] was determined as 0%. Besides, the pest or weed control at 178 µg/mL under setting [5] amounted to 30%. The pest or weed control at 400 µg/mL under setting [6] was found to be 42%. For the same compound, the pest or weed control at 890 µg/mL under setting [7] is 59%. Further, the pest or weed control at 2000 µg/mL under setting [8] is 100%. Under setting [9], the pest or weed control at 10000 µg/mL turned out to be 96%.
With `CCOc1c(OC)cccc1OC` [compound 2276, 2-ethoxy-1,3-dimethoxybenzene], under setting [10], the pest or weed control at 16 µg/mL was 0%. The pest or weed control at 400 µg/mL under setting [11] is 0%. Under setting [12], the pest or weed control at 10000 µg/mL turned out to be 98%. The pest or weed control at 1 % (Aedes aegypti) was more than 90%.
For `COc1cc(C(C)OC)ccc1O` (stereo not drawn) [compound 1480, 2-methoxy-4-(1-methoxyethyl)phenol], the “mosquito landing within the two minutes of experiments” value is listed as “protect the attractive stimulus for any mosquito landing”. The pest or weed control at 16 µg/mL under setting [10] amounted to 66%. Further, the pest or weed control at 400 µg/mL under setting [11] came to 61%. Under setting [12], the pest or weed control at 10000 µg/mL worked out at 100%. For the same compound, the pest or weed control at 1 % (Aedes aegypti) is more than 90%. Also, the pest or weed control at 0.0016 % (Aedes aegypti, lowest concentration of 0.0016% (Table 3)) was more than 50%.
With `COc1cc(C=NCCN=Cc2cc(OC)c(OC)c(OC)c2)cc(OC)c1OC` [compound 1980, 1-(3,4,5-trimethoxyphenyl)-N-[2-[(3,4,5-trimethoxyphenyl)methylideneamino]ethyl]methanimine], the pest or weed control at 3.2 µg/mL (Aedes aegypti, 0.0032 mg/mL (Table 1), read-out: Percentage of repellence of mosquitoes Aedes aegypti landing on the warm body) amounted to 53%. Further, where the note is “Aedes aegypti, 0.0071 mg/mL (Table 1), read-out: Percentage of repellence of mosquitoes Aedes aegypti landing on the warm body”, the pest or weed control at 7.1 µg/mL worked out at 57%. Moreover, the pest or weed control at 16 µg/mL (Aedes aegypti, 0.016 mg/mL (Table 1), read-out: Percentage of repellence of mosquitoes Aedes aegypti landing on the warm body) turned out to be 34%. In addition, the pest or weed control at 35.7 µg/mL (Aedes aegypti, 0.0357 mg/mL (Table 1), read-out: Percentage of repellence of mosquitoes Aedes aegypti landing on the warm body) turned out to be 32%. Also, the pest or weed control at 53 µg/mL (Aedes aegypti, 0.053 mg/mL (Table 1), read-out: Percentage of repellence of mosquitoes Aedes aegypti landing on the warm body) is 77%. Also, the pest or weed control at 80 µg/mL (Aedes aegypti, 0.08 mg/mL (Table 1), read-out: Percentage of repellence of mosquitoes Aedes aegypti landing on the warm body) is 92%. Also, the pest or weed control at 119 µg/mL (Aedes aegypti, 0.119 mg/mL (Table 1), read-out: Percentage of repellence of mosquitoes Aedes aegypti landing on the warm body) came out at 75%. Further, the pest or weed control at 178 µg/mL (Aedes aegypti, 0.178 mg/mL (Table 1), read-out: Percentage of repellence of mosquitoes Aedes aegypti landing on the warm body) turned out to be 67%. In addition, the pest or weed control at 267 µg/mL (Aedes aegypti, 0.267 mg/mL (Table 1), read-out: Percentage of repellence of mosquitoes Aedes aegypti landing on the warm body) came out at 84%. Moreover, the pest or weed control at 400 µg/mL (Aedes aegypti, 0.4 mg/mL (Table 1), read-out: Percentage of repellence of mosquitoes Aedes aegypti landing on the warm body) was 81%. The pest or weed control at 598 µg/mL (Aedes aegypti, 0.598 mg/mL (Table 1), read-out: Percentage of repellence of mosquitoes Aedes aegypti landing on the warm body) worked out at 88%. Also, the pest or weed control at 890 µg/mL (Aedes aegypti, 0.89 mg/mL (Table 1), read-out: Percentage of repellence of mosquitoes Aedes aegypti landing on the warm body) is 63%. In addition, for the setting “Aedes aegypti, 2 mg/mL (Table 1), read-out: Percentage of repellence of mosquitoes Aedes aegypti landing on the warm body”, the pest or weed control at 2000 µg/mL came to 86%. In addition, the pest or weed control at 4470 µg/mL (Aedes aegypti, 4.47 mg/mL (Table 1), read-out: Percentage of repellence of mosquitoes Aedes aegypti landing on the warm body) came out at 71%. The pest or weed control at 10000 µg/mL (Aedes aegypti, 10 mg/mL (Table 1), read-out: Percentage of repellence of mosquitoes Aedes aegypti landing on the warm body) turned out to be 96%.
As for `COc1cc(C=CC(=O)O)cc(OC)c1OC` [compound 1566, 3-(3,4,5-trimethoxyphenyl)prop-2-enoic acid], the pest or weed control at 3.2 µg/mL under setting [1] was 0%. Also, the pest or weed control at 16 µg/mL under setting [2] is 20%. In addition, under setting [3], the pest or weed control at 35.7 µg/mL is 22%. Moreover, under setting [4], the pest or weed control at 80 µg/mL stood at 0%. Also, the pest or weed control at 178 µg/mL under setting [5] was 30%. Moreover, under setting [6], the pest or weed control at 400 µg/mL stood at 81%. Under setting [7], the pest or weed control at 890 µg/mL is 69%. In addition, under setting [8], the pest or weed control at 2000 µg/mL was 57%. For the same compound, the pest or weed control at 10000 µg/mL under setting [9] is 96%.
As to `COc1cc(CC=O)ccc1O` [compound 1467, 2-(4-hydroxy-3-methoxyphenyl)acetaldehyde], the pest or weed control at 16 µg/mL under setting [10] stood at 29%. Further, under setting [11], the pest or weed control at 400 µg/mL came out at 84%. For the same compound, the pest or weed control at 10000 µg/mL under setting [12] came out at 79%. In addition, for the setting “Aedes aegypti”, the pest or weed control at 0.04 % was more than 75%.
As to `COC(=O)C(C)Cc1ccc(OC)c(OC)c1` (stereo not drawn) [compound 1698, methyl 3-(3,4-dimethoxyphenyl)-2-methylpropanoate], the “mosquito landing within the two minutes of experiments” value is “protect the attractive stimulus for any mosquito landing”. In addition, under setting [10], the pest or weed control at 16 µg/mL was found to be 45%. Also, the pest or weed control at 400 µg/mL under setting [11] turned out to be 88%. Besides, the pest or weed control at 10000 µg/mL under setting [12] is 100%. Moreover, where the note is “Aedes aegypti”, the pest or weed control at 1 % was more than 90% and the pest or weed control at 0.04 % was more than 75%.
On to `CC=Cc1cc(OC)ccc1OC` [compound 1196, 1,4-dimethoxy-2-[1-propen-1-yl]benzene], for which, under setting [13], the pest or weed control at 16 µg/mL amounted to 57%, the pest or weed control at 400 µg/mL came out at 74% and the pest or weed control at 10000 µg/mL turned out to be 86%. In addition, the pest or weed control at 0.0016 % (Aedes aegypti) is more than 50%.

(Values after patent US20250113823A1, “Arthropod Control Compositions” (priority 2022, published 2025).)
